Measurements as given in US12545653B2, “Compound as PPAR agonist and application thereof” (USA Elixiria Biotech Inc., priority 2019, dated 2026).

Columns and labels:
klotho gene = assay: In vivo brain transcriptional activity of klotho gene (RT-PCR of brain mRNA); design: species or system mouse; conditions: 10 mg/kg body weight/day tail vein
Protocol: To verify this hypothesis, adult male Kunming mice were used in the experiments. […] The injection volume is 8 ml/kg body weight. Dimethyl sulfoxide (DMSO) was used as a vehicle control of the compounds. […] The RNA was then reverse-transcribed to the cDNA, and quantified by SYBR Green fluorescence quantitative PCR kit (HaiGene) and a quantitative PCR system (Bio-Rad Min-Opticon Type 2) were used for real-time fluorescent quantitative polymerase chain reaction (RT-PCR). The mouse gene primers were design as follows: • KLOTHO-forward 5′-[…]-3′; • LOTHO-reverse 5′-[…]-3′; • GAPDH-forward 5′-[…]-3′; • GAPDH-reverse 5′-[…]-3′.
Data analysis was performed using the 2^−ΔΔct method. Semi-quantitative values of gene expression were then normalized by the control mean.

PPARγ = target: T1, PPARγ (Homo sapiens, UniProt P37231); assay: In vitro transcriptional activity of PPARγ gene (PPRE-luciferase reporter, HEK 293 T cells); type: cell-based; conditions: HEK 293 T cells transfected with PPARγ expression and PPRE-luc plasmids, 21 hours; read-out: EC50 of PPARγ gene activation
T1 construct: expressed in transfected cells; host or cells: HEK 293 T cells
T1 sequence (P37231 1-505): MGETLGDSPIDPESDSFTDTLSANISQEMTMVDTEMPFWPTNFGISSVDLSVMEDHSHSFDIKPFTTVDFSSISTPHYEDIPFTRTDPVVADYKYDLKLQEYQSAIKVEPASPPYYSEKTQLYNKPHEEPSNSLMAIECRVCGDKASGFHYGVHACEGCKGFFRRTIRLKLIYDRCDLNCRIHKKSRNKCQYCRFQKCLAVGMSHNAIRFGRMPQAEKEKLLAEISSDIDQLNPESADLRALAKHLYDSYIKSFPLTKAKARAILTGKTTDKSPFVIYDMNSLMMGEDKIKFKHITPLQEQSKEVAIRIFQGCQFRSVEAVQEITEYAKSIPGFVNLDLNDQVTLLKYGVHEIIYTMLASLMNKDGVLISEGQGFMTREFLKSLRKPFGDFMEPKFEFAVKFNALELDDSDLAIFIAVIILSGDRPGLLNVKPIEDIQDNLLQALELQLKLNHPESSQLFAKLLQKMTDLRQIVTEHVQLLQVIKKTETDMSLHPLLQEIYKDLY
Source text: In this experiment, the PPARγ gene was used as target gene to detect the in vitro transcription activity of the compounds. The compounds of interest were detected was first dissolved with dimethyl sulfoxide (DMSO). […] First two plasmids were constructed: PPARγ protein expression plasmid and luciferase reporter plasmid. They are both from the lentiviral plasmid pLV-CMVIE-ZsGreen-Puro, whose DNA sequence contains the cytomegalovirus immediate early (CMVie) promoter, ZsGreen and Puro dual reporter. The PPARγ expression plasmid pLV-CMVIE-PPAR[…]-ZsGreen-Puro was constructed by cloning full-length coding sequences of the pertinent receptors into pHBLV-CMVIE-ZsGreen-Puro vector. To construct the luciferase (luc) reporter plasmid pLV-PPRE-luc-ZsGreen-Puro, the CMVie promoter in plasmid pHBLV-CMVIE-ZsGreenPuro was first replaced by a peroxisome proliferator responsive element (PPRE) containing fragments comprised the nucleotide sequence 50-[…], repeated four times in tandem, to generate a new plasmid, at a multiple cloning site of which the luc gene was then inserted. […] The compounds used for screening are representatives for compounds listed in Table 2, and Tables 3 of the present invention. […] Cells were distributed in 10-cm tissue culture plates at a density of 5.5 million cells per plate, and then transfected with the luciferase reporter plasmid (6 nanogram/plate) and the PPARγ expression plasmid (18 nanogram/plate). Cells were cultured for 6 hours. […] Then the cells were distributed in 96-well plates at a density of 20,000 cells per well. After incubation for 6 h, compounds or control with different concentration were placed into each well, resulting in the finical concentration of […] with each concentration in triplicate. Twenty-one hours later, promoter activation was detected by the addition of SteadyLite (PerkinElmer, Waltham, MA) and GloMax 96 Microplate Luminometer (Promega, Madison, WI). The amount of Luminometer emitted from each well is positively correlated with the expression of PPARγ gene. A three-parameter Sigmoid function curve was used to fit the obtained data. The abscissa represents the logarithmic value of the concentration, and the ordinate represents the percentage of PPARγ gene activation relative to those of the control. […] In Statistical analysis, the coefficient of variation is used to measure the robustness and repeatability of the experiment. […] The difference is significant with P<0.05. EC50 is a parameter of its activity.

LN-229 cells = assay: Brain cancer model, LN-229 cells injected into the striatum, tumor volume; type: in vivo, mouse; conditions: mice with LN-229 cells in striatum, 5 mg/kg body weight/day
Protocol: The treatment lasted for a total of 30 days. The compounds was dissolved in DMSO and mixed into food pellets. The animals were given ad libitum access to the pellets. […] The difference is significant with P<0.05.

[1] = tested on: rat model of hyperglycemia-induced nephropathy; assay: Hyperglycemia-induced nephropathy model (streptozotocin); type: in vivo; conditions: streptozotocin rats, 5 mg/kg body weight/day in food, 90 days
Protocol: The method was as follows:
Wild type Sprague-Dawley rats were used. The compounds was dissolved in DMSO and mixed into food pellets. The animals were given ad libitum access to the pellets. […] In addition, 3 days before compound treatment, the animal of group 2 to 4 were given a single intraperitoneal injection of streptozotocin, and 3 days later, blood glucose levels were measured from tail veins using a glucose meter. Animals with blood glucose levels above 500˜650 milligrams per deciliter were considered as hyperglycemia and were used for further study. No any side effect, or significant body weight changes, or significant dietary changes were found during the administration. After 90 days after initiation of treatment, blood pressure values were measured with the tail cuff system. The day before the kidneys were harvested, animals were placed in metabolic cages for 24 h for urine collection, and albumin to creatinine ratio (ACR) was measured. Animals were then fasted for 12 hours and sacrificed under anesthesia with a 10% chloral hydrate solution (0.3 g/kg). Serum samples were isolated and biochemical parameters were analyzed with by enzyme colorimetry in an automatic analyzer (Roche) to determine the FBG (fasting blood glucose) level (unit millimole/L). In addition, fasting insulin (FINS) levels, where the units are milliIU/L, were determined by enzyme-linked immunosorbent assay (ELISA) method with anti-rat insulin antibodies, and TNF-α was detected by rat tumor necrosis factor-α (TNF-α) ELISA kit (BD). […] The difference is significant with P<0.05.

APP/PS1 transgenic mice = assay: Alzheimer's disease model, eight-arm radial water maze and brain gene expression; type: in vivo, mouse; conditions: 30 days in food, 10 mg/kg body weight/day (donepezil 3 mg/kg body weight/day)
Source text: A common indicator used in academia in memory and dementia experiments is the number of errors in the water maze (reference memory). More errors mean poorer memory. On the last 3 days of dosing, eight-arm radial water maze was used by experimenters who were blind to drug treatment. As a classic experimental instrument, to detect slight deficits in learning and memory, the eight-arm water maze is more sensitive than not only Morris maze, but also Six-arm radial water maze. For details, see reference 8: Alamed J et al. Two-day radial-arm water maze learning and memory task; robust resolution of amyloid-related memory deficits in transgenic mice [J]. […] This experiment uses an eight-arm water maze built in accordance with the above literature. The eight-arm water maze is placed in a basin with an interior diameter of 102 cm. Each arm measures 30 cm long, 14.5 cm wide, and 40 cm high. Escape platform is located at the end of one of the arms. In the reference memory version of the task described here, the goal arm is held constant for all trials, with a different start arm on successive trials. On day one, mice received 12 trials, with trials alternating between visible and hidden platform. On day 2 and 3, mice received 12 additional trials but the platform was kept hidden throughout the trials. Entry into an incorrect arm was scored as a spatial reference error. Errors were averaged into three trial blocks, with four blocks per day, e.g., the first block (the 1st to 3rd trial), the second block (the 4th to 6th trial), and so on. […]. The line charts were made with the number of blocks as the abscissa and the average of the number of errors as the ordinate. At the end of the experiments, the cerebral cortex and hippocampus of the mice were removed, RNA was extracted, and the expression of many genes was analyzed by semi-quantitative RT-PCR. […] The difference is significant with P<0.05.

EC50 (PPARγ): < 6.4 µM
Compound: CCc1ccc(CC/C=C/c2ccc3c(c2)NC(=O)CC3)cc1 [ELB00727, (E)-7-(4-(4-ethylphenyl)but-1-en-1-yl)-3,4-dihydroquinolin-2(1H)-one]
mRNA level of klotho gene in the brain of the mouse relative to vehicle control group (klotho gene; after 10 days of continuous injection): more than twice | fold induction at 10 mg/kg (klotho gene; Mus musculus, iv, 720 h, after 30 days of continuous injection, read-out: mRNA level of klotho gene in the brain of the mouse relative to vehicle control group): > 5 | tumor volume at 30 days compared with disease control group (LN-229 cells): significant tumor volume reduction | blood TNF-α level compared with disease control group [1]: significant TNF-α level reduction | insulin resistance index ISI=ln (FBG*FINS) compared with disease control group [1]: significant ISI increase | urine albumin to creatinine ratio (ACR) compared with disease control group [1]: significant ACR reduction | number of errors in water maze on the third day (APP/PS1 transgenic mice; 5 on the first day): ~1 | reduction in the number of errors (reference memory), third day compared with first day (APP/PS1 transgenic mice; eight-arm water maze): significant
